Calls of active or inactive are those of the source. No cut-off for these calls is given here.
Columns and labels:
Ecdysone receptor [1] = target: T1, Ecdysone receptor (Bombyx mori, UniProt P49881); experiment: Antagonist activity at ecdysone receptor in Bombyx mori Bm5 cells assessed as tebufenozide-induced effect treated 24 hr before tebufenozide challenge measured after 24 hr by luciferase reporter gene assay; assay type: cell-based
T1 sequence (P49881 whole entry): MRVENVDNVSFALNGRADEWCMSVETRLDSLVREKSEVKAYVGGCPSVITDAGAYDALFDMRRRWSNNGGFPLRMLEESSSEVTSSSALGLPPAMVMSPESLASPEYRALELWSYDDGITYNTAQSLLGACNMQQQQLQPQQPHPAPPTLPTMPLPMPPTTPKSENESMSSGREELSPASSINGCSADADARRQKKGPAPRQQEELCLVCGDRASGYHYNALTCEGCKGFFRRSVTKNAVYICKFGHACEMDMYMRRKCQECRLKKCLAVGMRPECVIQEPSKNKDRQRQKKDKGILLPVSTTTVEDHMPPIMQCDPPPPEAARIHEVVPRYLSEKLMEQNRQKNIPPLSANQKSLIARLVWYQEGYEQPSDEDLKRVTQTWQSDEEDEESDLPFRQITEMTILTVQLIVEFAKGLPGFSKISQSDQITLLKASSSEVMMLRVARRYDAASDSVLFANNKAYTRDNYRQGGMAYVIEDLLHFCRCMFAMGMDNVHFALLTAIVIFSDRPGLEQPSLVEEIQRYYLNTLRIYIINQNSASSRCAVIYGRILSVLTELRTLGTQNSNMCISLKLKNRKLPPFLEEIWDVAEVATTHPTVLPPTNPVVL

[2] = Ratio of IC50 for ecdysone receptor in Spodoptera littoralis Sl2 cells to LC50 for Spodoptera littoralis Sl2 cells
[3] = Cytotoxicity against Bombyx mori Bm5 cells assessed as cell viability after 24 hr by MTT assay; assay type: cell-based; details: read-out: pLC50 (converted)
Spodoptera littoralis [4] = experiment: Cytotoxicity against Spodoptera littoralis Sl2 cells assessed as cell viability after 24 hr by MTT assay; details: read-out: pLC50 (converted)
[5] = Ratio of IC50 for ecdysone receptor in Bombyx mori Bm5 cells to LC50 for Bombyx mori Bm5 cells
Ecdysone receptor [6] = target: T2, Ecdysone receptor (Spodoptera littoralis, UniProt E3UJZ5); experiment: Antagonist activity at ecdysone receptor in Spodoptera littoralis Sl2 cells assessed as tebufenozide-induced effect treated 24 hr before tebufenozide challenge measured after 24 hr by luciferase reporter gene assay; assay type: cell-based
T2 sequence (E3UJZ5 whole entry): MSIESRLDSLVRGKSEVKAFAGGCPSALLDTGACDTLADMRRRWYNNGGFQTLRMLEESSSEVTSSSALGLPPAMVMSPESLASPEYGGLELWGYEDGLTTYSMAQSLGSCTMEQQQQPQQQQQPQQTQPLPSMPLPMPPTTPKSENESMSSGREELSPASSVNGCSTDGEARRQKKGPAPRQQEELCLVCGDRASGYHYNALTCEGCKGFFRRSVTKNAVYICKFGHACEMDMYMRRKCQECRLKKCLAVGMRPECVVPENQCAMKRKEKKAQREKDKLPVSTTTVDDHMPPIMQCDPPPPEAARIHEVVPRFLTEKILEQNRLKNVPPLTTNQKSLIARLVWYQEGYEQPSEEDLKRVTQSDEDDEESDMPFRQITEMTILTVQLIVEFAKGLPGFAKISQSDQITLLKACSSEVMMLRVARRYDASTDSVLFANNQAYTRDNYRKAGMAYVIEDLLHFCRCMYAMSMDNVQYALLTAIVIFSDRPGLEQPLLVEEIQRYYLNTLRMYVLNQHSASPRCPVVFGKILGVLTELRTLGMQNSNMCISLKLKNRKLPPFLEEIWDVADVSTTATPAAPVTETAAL

[7] = target: T3, Ecdysone receptor (Bombyx mori) (UniProt P49881); experiment: Agonist activity at ecdysone receptor in Bombyx mori Bm5 cells at 200 uM after 24 hr by luciferase reporter gene assay; assay type: cell-based
T3 sequence (whole entry): T1 sequence (P49881 whole entry)

[8] = target: T4, Ecdysone receptor (Spodoptera littoralis) (UniProt E3UJZ5); experiment: Agonist activity at ecdysone receptor in Spodoptera littoralis Sl2 cells at 200 uM after 24 hr by luciferase reporter gene assay; assay type: cell-based
T4 sequence (whole entry): T2 sequence (E3UJZ5 whole entry)

Ecdysone receptor [9] = target: T2, Ecdysone receptor; experiment: Agonist activity at ecdysone receptor in Spodoptera littoralis Sl2 cells after 24 hr by luciferase reporter gene assay; assay type: cell-based
Ecdysone receptor [10] = target: T1, Ecdysone receptor; experiment: Agonist activity at ecdysone receptor in Bombyx mori Bm5 cells after 24 hr by luciferase reporter gene assay; assay type: cell-based
[11] = target: T4, Ecdysone receptor (Spodoptera littoralis); experiment: Agonist activity at ecdysone receptor in Spodoptera littoralis Sl2 cells after 24 hr by luciferase reporter gene assay relative to tebufenozide; assay type: cell-based
[12] = target: T3, Ecdysone receptor (Bombyx mori); experiment: Agonist activity at ecdysone receptor in Bombyx mori Bm5 cells after 24 hr by luciferase reporter gene assay relative to tebufenozide; assay type: cell-based
[13] = Selectivity ratio of EC50 for ecdysone receptor in Bombyx mori Bm5 cells to EC50 for ecdysone receptor in Spodoptera littoralis Sl2 cells; assay type: cell-based
Bombyx mori = experiment: Larvicidal activity against Bombyx mori assessed as mortality applied topically after 1 week; assay type: functional
Spodoptera littoralis [14] = experiment: Larvicidal activity against Spodoptera littoralis assessed as mortality applied topically after 1 week; assay type: functional
[15] = Ratio of LD50 for Spodoptera littoralis to LD50 for Bombyx mori; assay type: functional

SMILES | IC50 (Ecdysone receptor [1]) [µM] | Ratio [2] | CC50 at 24 h [3] [µM] | CC50 at 24 h (Spodoptera littoralis [4]) [µM] | Ratio [5] | IC50 (Ecdysone receptor [6]) [µM] | Efficacy [11] [%] | Efficacy [12] [%] | EC50 (Ecdysone receptor [9]; read-out: pEC50 (converted)) [µM] | Ratio EC50 [13] | EC50 (Ecdysone receptor [10]; read-out: pEC50 (converted)) [µM] | further results
Cc1ccc(NC2CCN(C(=O)c3ccc(Cl)cc3)c3ccccc32)cc1 (stereo not given) | 8.91 | 0.12 | 21.4 | 427 | 0.42 | – | – | – | – | – | – | –
Cc1ccc(NC2CCN(C(=O)c3ccc(Cl)cc3)CC2)cc1 | 2.24 | 0.55 | < 5.01 | 27.5 | – | 15.1 | – | – | – | – | – | –
Cc1ccc(N(C(=O)c2ccc(Cl)cc2)C2CC(C)N(C(=O)c3ccc(Cl)cc3)c3ccc(C)cc32)cc1 (stereo not given) | 13.5 | <0.85 | 7.08 | > 15.1 | 1.91 | 12.9 | – | – | – | – | – | –
Cc1ccc(NC2CC(C)N(C(=O)c3ccc(C(C)(C)C)cc3)c3ccc(C)cc32)cc1 (stereo not given) | 24 | – | 11.5 | > 25.1 | 2.09 | > 25.1 | – | – | – | – | – | –
Cc1ccc(NC2CC(C)N(C(=O)c3ccc(C)cc3)c3ccc(C)cc32)cc1 (stereo not given) | 26.9 | <0.15 | 30.2 | > 501 | 0.89 | 74.1 | – | – | – | – | – | –
CCOc1ccccc1C(=O)N(NC(=O)c1ccccc1)C(C)(C)C | – | – | – | – | – | – | – | – | – | – | – | Activity [7]: inactive; Activity [8]: inactive
CCOc1ccccc1C(=O)N(NC(=O)c1ccc([N+](=O)[O-])cc1)C(C)(C)C | – | – | – | – | – | – | – | – | – | – | – | Activity [7]: inactive; Activity [8]: inactive
CC1CC(Nc2ccc(F)cc2)c2cc(F)ccc2N1C(=O)c1ccc(Cl)cc1 (stereo not given) | – | – | 162 | > 501 | – | – | 64 | 59 | – | – | – | EC50 (Ecdysone receptor [9]; read-out: EC50): 60 µM; EC50 (Ecdysone receptor [10]; read-out: EC50): 55 µM
CCc1ccc(C(=O)NC2(C(=O)c3cc(C)cc(C)c3)CCCCC2)cc1 | – | – | – | – | – | – | 101 | 112 | 0.12 | 0.65 | 0.0776 | pLD50 (Bombyx mori): 6.08; pLD50 (Spodoptera littoralis [14]): <4.44; Ratio [15]: > 23.4
Cc1ccc(NC2CC(C)N(C(=O)c3ccc(Cl)cc3)c3ccc(C)cc32)cc1 (stereo not given) | 14.8 | <0.16 | 34.7 | > 501 | 0.43 | 79.4 | – | – | – | – | – | –
CCc1ccc(C(=O)NC(C(=O)c2cc(C)cc(C)c2)C(C)(C)C)cc1 (stereo not given) | 28.2 | <0.05 | 38.9 | > 501 | 0.72 | 24 | 17 | 11 | 46.8 | 0.76 | 35.5 | –
Cc1cc(C)cc(C(=O)C2(NC(=O)C(F)(F)F)CCCCC2)c1 | 67.6 | <0.04 | 234 | > 501 | 0.29 | 16.2 | 17 | 6 | – | – | – | pEC50 (Ecdysone receptor [9]; sl2): > 4; pEC50 (Ecdysone receptor [10]): > 4
CCc1ccc(C(=O)NN(C(=O)c2ccccc2)C(C)(C)C)cc1 | – | – | – | – | – | – | 110 | 84 | 0.11 | 0.16 | 0.0174 | pLD50 (Bombyx mori): 7.09; pLD50 (Spodoptera littoralis [14]): <5.49; Ratio [15]: > 39.8
CC1CCc2ccccc2N1C(=O)c1ccc(Cl)cc1 (stereo not given) | 47.9 | 0.53 | 69.2 | 102 | 0.69 | 55 | – | – | – | – | – | –
CC(C)(C)N(NC(=O)c1ccc(Cl)cc1)C(=O)c1ccccc1 [HALOFENOZIDE] | – | – | – | – | – | – | 107 | 95 | 0.457 | 0.17 | 0.0776 | pLD50 (Bombyx mori): 6.52; pLD50 (Spodoptera littoralis [14]): 5.43; Ratio [15]: 12.3
COc1ccc(C(=O)NN(C(=O)c2ccccc2Cl)C(C)(C)C)cc1 | – | – | – | – | – | – | 85 | 126 | 0.339 | 0.4 | 0.135 | pLD50 (Bombyx mori): 6.53; pLD50 (Spodoptera littoralis [14]): <5.44; Ratio [15]: > 12.3
Cc1ccccc1C(=O)NN(C(=O)c1ccccc1Cl)C(C)(C)C | – | – | – | – | – | – | 124 | 98 | 0.437 | 0.3 | 0.129 | pLD50 (Bombyx mori): 6.69; pLD50 (Spodoptera littoralis [14]): <5.46; Ratio [15]: > 17
